Measurements as given in patent publication US9938562B2, “Naphthalene derived chromogenic enzyme substrates” (Glycosynth Limited, priority 2013, dated 2018).
Counter-ions that a name gives are not always drawn.

Experiments:
Type in all cases: cell-based
[1] = system: Escherichia coli NCTC 10418; assay: Agar plate multi-point inoculation, colour
[2] = system: clinical isolates of E. coli
Shigella sonnei = assay: Broth medium with ONPG (dual chromogenic system); conditions: combination with ONPG
Experimental: (§1) The two indoxyl glucuronides used produce insoluble endpoints following hydrolysis, as does the CPS ID 3 medium. It was therefore necessary to test these two substrates on agar plates. In contrast, DHN-β-D-glucuronide (12) gives a much more soluble endpoint best suited to liquid media and was therefore tested in a broth medium. The broth was prepared using proteose peptone (2 g), NaCl (1 g) and FAC (100 mg) in DI water (180 mL). This mixture was autoclaved and cooled to room temperature before being dispensed into bijoux (100×1.8 mL). DHN-β-D-glucuronide CHA salt (12a) (60 mg) was dissolved in water (20 mL) and filtered to sterilize before being aseptically dispensed into successive bijoux (0.2 mL) containing the broth solution. The broth/substrate solutions were then inoculated with bacterial suspensions made up to 0.5 McFarland standard (2 μL per bijoux). X-β-D-glucuronide CHA salt (Glycosynth Ltd, Warrington, UK) (10 mg) was dissolved in NMP (200 μL). […]
(§2) Because many E. coli produce both β-D-glucuronidase and β-D-galactosidase, DHN-β-D-glucuronide (12a) was tested as in the broth medium described above but in the presence of ONPG (at a concentration of 1.5 g/L). […] The colour of these solutions of mixed chromogens could be very readily distinguished with the unaided eye from the yellow colour of those strains, such as E. cloacae, that produced β-D-galactosidase only. […]

[3] = system: E. coli expressing both β-D-glucuronidase and β-D-galactosidase; assay: Broth medium with ONPG (dual chromogenic system); conditions: broth with FAC, ONPG 1.5 g/L
Experimental: as §1, §2

[4] = system: Providencia rettgeri NCTC 7475; assay: Agar plate multi-point inoculation, colour
[5] = system: Bacillus subtilis NCTC 9372; assay: Agar plate multi-point inoculation, colour
[6] = system: Morganella morganii 462403 (wild); assay: Agar plate multi-point inoculation, colour; conditions: Columbia agar, FAC 500 mg/L, substrate 300 mg/L, 37° C. 18 h in air
[7] = system: Staphylococcus epidermidis NCTC 11047; assay: Agar plate multi-point inoculation, colour
[8] = system: Burkholderia cepacia 1222; assay: Agar plate multi-point inoculation, colour; conditions: Columbia agar, FAC 500 mg/L, substrate 300 mg/L, 37° C. 18 h in air
E. faecalis NCTC 775 = assay: Glucuronide screen, broth containing FAC; conditions: E. faecalis NCTC 775, broth
[9] = system: Citrobacter freundii NCTC 9750 or 46262; assay: Agar plate multi-point inoculation, colour; conditions: Columbia agar, FAC 500 mg/L, substrate 300 mg/L, 37° C. 18 h in air
[10] = system: Listeria monocytogenes NCTC 11994; assay: Agar plate multi-point inoculation, colour
[11] = system: Candida glabrata NCPF 3943; assay: Agar plate multi-point inoculation, colour
[12] = system: Salmonella typhimurium NCTC 74; assay: Agar plate multi-point inoculation, colour
[13] = system: Serratia marcescens NCTC 10211; assay: Agar plate multi-point inoculation, colour
E. faecium NCTC 7171 = assay: Glucuronide screen, broth containing FAC; conditions: E. faecium NCTC 7171, broth
[14] = system: Enterobacter cloacae NCTC 11936; assay: Agar plate multi-point inoculation, colour
[15] = system: Enterococcus faecalis NCTC 775; assay: Agar plate multi-point inoculation, colour
[16] = system: Candida albicans ATCC 90028; conditions: Columbia agar, FAC 500 mg/L, substrate 300 mg/L, 37° C. 18 h in air
[17] = system: Yersinia enterocolitica NCTC 11176; assay: Agar plate multi-point inoculation, colour; conditions: Columbia agar, FAC 500 mg/L, substrate 300 mg/L, 37° C. 18 h in air
[18] = system: Staphylococcus aureus NCTC 6571; assay: Agar plate multi-point inoculation, colour
[19] = system: Pseudomonas aeruginosa NCTC 10662; assay: Agar plate multi-point inoculation, colour
[20] = system: Steptococcus pyogenes NCTC 8306; assay: Agar plate multi-point inoculation, colour
[21] = system: Enterococcus faecium NCTC 7171; assay: Agar plate multi-point inoculation, colour
E. cloacae = assay: Glucuronide screen, broth containing FAC
[22] = system: Staphylococcus aureus (MRSA) NCTC 11939; assay: Agar plate multi-point inoculation, colour; conditions: Columbia agar, FAC 500 mg/L, substrate 300 mg/L, 37° C. 18 h in air

## O=C(O)C1OC(Oc2cc3ccccc3cc2O)C(O)C(O)C1O [Compound 12a, DHN-β-D-glucuronide CHA Salt]
[1]
  Colour: ++
  hydrolysis of substrate (judged by colour): strong colour
[2]
  % Sensitivity: 82%
  Colour: Purple and −
  Negative strains: 18
  Positive strains: 82
Shigella sonnei
  detection of β-D-glucuronidase activity: able to detect
[3]
  colour of solutions: purple-brown solutions
[4]
  Colour: −
[5]
  Colour: −
[6]
  Colour: −
[7]
  Colour: −
[8]
  Colour: −
E. faecalis NCTC 775
  Colour: −
[9]
  Colour: −
[10]
  Colour: −
[11]
  Colour: −
[12]
  Colour: −
[13]
  Colour: −
E. faecium NCTC 7171
  Colour: −
[14]
  Colour: −
[15]
  Colour: −
[16]
  Colour: −
[17]
  Colour: −
[18]
  Colour: −
[19]
  Colour: −
[20]
  Colour: −
[21]
  Colour: −
E. cloacae; E. cloacae 260329R, broth
  Colour: −
E. cloacae; E. cloacae NCTC 11936, broth
  Colour: −
[22]
  Colour: −
